The values below come from ChEMBL document CHEMBL5113481, “Design, synthesis and biological evaluation of quinoline-2-carbonitrile-based hydroxamic acids as dual tubulin polymerization and histone deacetylases inhibitors” (Eur J Med Chem, 2022).

In brackets after ≈: the same amount, converted by molar mass. Activity calls are given as the source filed them. The rule behind the calls is not given here.

For one data set, the system named is MCA-205. Nature of the data set: Antitumor activity against mouse MCA-205 cells allografted in female C57BL/6 mouse assessed as complete tumor regression at 0.5 mg/kg, IT(Intratumoral). The data set is classed as functional, organism-based.
Data set [1] concerns the target T1, Histone deacetylase 8 (Homo sapiens) (UniProt Q9BY41).
T1 sequence (whole entry): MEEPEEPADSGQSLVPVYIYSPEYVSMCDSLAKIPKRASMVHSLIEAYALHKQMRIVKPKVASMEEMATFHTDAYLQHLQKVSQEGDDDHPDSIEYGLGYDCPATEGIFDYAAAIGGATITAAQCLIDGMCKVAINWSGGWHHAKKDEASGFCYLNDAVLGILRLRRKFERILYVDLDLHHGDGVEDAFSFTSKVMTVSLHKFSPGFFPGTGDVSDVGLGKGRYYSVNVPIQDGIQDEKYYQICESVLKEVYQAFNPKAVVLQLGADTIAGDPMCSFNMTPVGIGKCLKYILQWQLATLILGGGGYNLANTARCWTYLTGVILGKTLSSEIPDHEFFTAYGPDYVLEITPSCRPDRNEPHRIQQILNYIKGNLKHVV
Nature of the data set: Inhibition of HDAC8 in human HT-29 cells assessed as increase in SMC3 acetylation at 0.5 to 100 nM measured after 30 mins by western blot analysis. The settings on record: dose 0.5-100 nM. The data set is classed as cell-based. For orientation: A western blot detects proteins with antibodies after separation by electrophoresis.

The subject of data set [2] is HT-29. Nature of the data set: Cell cycle arrest in human HT-29 cells assessed as accumulation of cells in G2/M phase at 5 nM measured after 24 hrs by PI staining based flow cytometry method. Type of data set: functional.
Data set [3] can be described thus: Metabolic stability in human liver microsomes assessed as intrinsic clearance per mg protein measured upto 6 hrs in presence of NADPH generating system by HPLC-MS/MS analysis. Type of data set: ADME, Microsome. The conditions noted are these: read-out: CLH. A general note: Liver microsomes are vesicles of endoplasmic reticulum, rich in cytochrome P450 enzymes.

For another data set, the target named is T2, Histone deacetylase 11 (Homo sapiens, UniProt Q96DB2).
T2 sequence (Q96DB2 whole entry): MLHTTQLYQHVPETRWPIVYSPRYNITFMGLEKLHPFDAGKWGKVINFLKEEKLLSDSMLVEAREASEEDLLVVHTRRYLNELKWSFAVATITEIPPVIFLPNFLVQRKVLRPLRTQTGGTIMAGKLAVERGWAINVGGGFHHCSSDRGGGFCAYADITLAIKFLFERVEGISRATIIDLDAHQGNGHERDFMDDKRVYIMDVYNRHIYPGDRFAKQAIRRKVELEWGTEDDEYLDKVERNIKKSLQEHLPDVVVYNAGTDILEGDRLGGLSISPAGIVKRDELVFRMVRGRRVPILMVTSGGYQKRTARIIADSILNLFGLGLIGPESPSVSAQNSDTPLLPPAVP
Nature of the data set: Inhibition of HDAC11 (unknown origin) measured by fluorometry assay.

The subject of another data set is SK-OV-3. Nature of the data set: Antiproliferative activity against human SK-OV-3 cells after 72 hrs by CellTiter Glo assay. The conditions noted are these: SK-OV-3, 72 h. Type of data set: functional, cell-based. (In general: In ATP-based viability assays light output follows the ATP content of the culture.)
Another data set has as its system HCT-116. The experiment in a line: Antiproliferative activity against human HCT-116 cells after 72 hrs by CellTiter Glo assay. The data set is classed as functional, cell-based. The conditions noted are these: Homo sapiens, HCT-116; time 72 hrs.
The test system of the next data set is MDA-MB-231. Nature of the data set: Antiproliferative activity against human MDA-MB-231 cells after 72 hrs by CellTiter Glo assay. The data set is classed as functional, cell-based. The conditions noted are these: MDA-MB-231, 72 h.
The next data set concerns NCI-N87. Nature of the data set: Antiproliferative activity against human NCI-N87 cells after 72 hrs by CellTiter Glo assay. The data set is classed as functional, cell-based. The conditions noted are these: NCI-N87, 72 h.
The subject of the next data set is MIA PaCa-2. The experiment in a line: Antiproliferative activity against human MIA PaCa-2 cells after 72 hrs by CellTiter Glo assay. The data set is classed as functional, cell-based. The conditions noted are these: MIA PaCa-2, 72 h.
Data set [4] relates to K562. The experiment in a line: Antiproliferative activity against imatinib-resistant human K562 cells over expressing MDR1 after 72 hrs by CellTiter Glo assay. Type of data set: functional, cell-based. The conditions noted are these: K562, 72 h.
For the next data set, the target named is Tubulin (Homo sapiens) (UniProt P68371+Q9H4B7+P0DPH7+P68366+Q13509+Q71U36+P04350+Q3ZCM7+P07437+P68363+Q9BQE3+Q6PEY2+Q13885+Q9BVA1+Q9BUF5). Nature of the data set: Inhibition of tubulin polymerization in human MDA-MB-231 cells assessed as microtubule network polymerization at 250 nM after 30 mins by immunofluorescence analysis. Type of data set: cell-based.

For data set [5], the system named is K562. Nature of the data set: Antiproliferative activity against human K562 cells after 72 hrs by CellTiter Glo assay. Type of data set: functional, cell-based. The conditions noted are these: K562, 72 h.
Data set [6] in a line: Antitumor activity against mouse MCA-205 cells allografted in female C57BL/6 mouse assessed as tumor regression at […], IT(Intratumoral). Type of data set: functional.
The subject of data set [7] is HT-29. Nature of the data set: Cell cycle arrest in human HT-29 cells assessed as accumulation of cells in G2/M phase at 0.1 to 5 nM measured after 24 hrs by PI staining based flow cytometry method. Type of data set: functional. The settings on record: dose 0.1-5 nM, DDE = dose-dependent effect.
Data set [8] can be described thus: Solubility of compound in water. Type of data set: physicochemical.

Regarding `COc1ccc(N(C)c2cc(C#N)nc3ccccc23)cc1/C=C/C(=O)NO`, the outcome in the data set on MCA-205 was Active. Also, the inhibition result (in data set [1]; on Tubulin (Homo sapiens)) was “Active” each time. Moreover, the Activity with HT-29 [2] was more than 95%; in [6], 40%; in the data set on HT-29 [7], “Dde”. For the same molecule, the microsomal CLint in data set [3] was 0.36 µL/min/mg. In addition, the IC50 (in general, the point on the concentration scale where inhibition reaches its midpoint) is 1900 nM at Histone deacetylase 11; 0.6 nM with SK-OV-3; 0.7 nM with MDA-MB-231; 0.1 nM in the data set on NCI-N87; 0.94 nM in the data set on MIA PaCa-2; 0.56 nM in the data set with K562 [4]. In the data set on K562 [5], this molecule had an IC50 of 0.35 nM. Also, growth with HCT-116 was halved (GI50) at 0.5 nM. In data set [8], the concentration in solution (solubility) came to 68.7 µg/mL (≈ 183 µM).
